The test system of the assay is humans. Kind of assay: Human anti-hair graying effect test. It is filed as in vivo. The following applies: 0.25% sample applied on scalps of 10 male subjects, two times per day, 2 ml per time, six months; after use vs before use. The procedure: As the test substances, compounds 1, 2 and 3 were used. Each test substance was dissolved in a mixed solution of an aqueous 70% ethanol solution plus 1% 1,3-butylene glycol and the resultant mixture used as the sample (test substance concentration: 0.25%).
The number of gray hairs among approximately 1000 hairs was counted before and after use of each sample. The changes of the ratios were used to compare the anti-hair graying actions. Specifically, each sample was applied on the scalps of 10 male subjects two times per day, 2 ml per time, continuously for six months. One thousand hairs of each of the subjects were counted divided into black hairs and gray hairs before the application and right after the end of six months after termination of the application to investigate the hair graying rate. The ratios (%) of the subjects where the hair graying rates after use declined 20% or more compared with before use, changed within ±20% or increased by 20% or more were respectively calculated.

For the compound `NC1CCC(C(=O)O)CC1` (stereo not drawn) [Compound 1, 4-aminocyclohexane carboxylic acid], the “Hair graying rate: Changing within ±20% (ratio of subjects)” value came to 30%, the “Hair graying rate: Declining 20% or more (ratio of subjects)” value is given as 70% and the “Hair graying rate: Increasing 20% or more (ratio of subjects)” value was determined as 0%.
`CCOC(=O)C1CCNCC1` [Compound 3, 4-piperidine carboxylic acid ethyl ester]: the “Hair graying rate: Changing within ±20% (ratio of subjects)” value amounted to 20%, the “Hair graying rate: Declining 20% or more (ratio of subjects)” value stood at 70% and the “Hair graying rate: Increasing 20% or more (ratio of subjects)” value was 10%.
The matching figures for `O=C(O)C1CCNCC1` [Compound 2, 4-piperidine carboxylic acid]: 30%, 60% and 10%.

The record behind these values is US20080064723A1, “Anti-Hair Graying Agent” (SHISEIDO COMPANY, LTD., priority 2004, published 2008).
